From BigSolDB 2.1

C=CC(=O)Nc1cc(Nc2nccc(-c3cn(C)c4ccccc34)n2)c(OC)cc1N(C)CCN(C)C
Details | solubility (mole fraction)
in PEG-400, 298.2 K | 0.00214
in PEG-400, 303.2 K | 0.00307
in PEG-400, 308.2 K | 0.00421
in PEG-400, 313.2 K | 0.00583
in PEG-400, 318.2 K | 0.00733

solubility (mole fraction)
Details | in dichloromethane | in ethanol | in ethyl acetate | in isopropyl myristate | in propylene glycol | in transcutol | in water
298.2 K | 0.000939 | 0.000472 | 0.00129 | 0.000794 | 0.000766 | 0.00144 | 1.85e-05
303.2 K | 0.0014 | 0.000703 | 0.00174 | 0.00122 | 0.00106 | 0.0022 | 2.24e-05
308.2 K | 0.00196 | 0.000989 | 0.00241 | 0.00186 | 0.00143 | 0.00337 | 2.72e-05
313.2 K | 0.0028 | 0.00131 | 0.0031 | 0.00263 | 0.00206 | 0.0046 | 3.18e-05
318.2 K | 0.00366 | 0.00176 | 0.00398 | 0.00344 | 0.00265 | 0.00638 | 3.69e-05
